Where a name gives a salt, the structure may show the parent alone.
Target: T1, BRM (Homo sapiens, UniProt P51531)
T1 construct: In-Cell Western Screen of BRM Degradation in SW1573 Cells; endogenous in cells; host or cells: SW1573 cells
Assay: Western blot / In-Cell Western screen of BRM degradation in SW1573 cells
Format: cell-based
Settings: overnight (18-20 hours) treatment; for Dmax: read-out: Dmax (%) (% degraded)
Protocol: Western Blot Screen of BRM Degradation in SW1573 Cells
(§1) To assess BRM degradation (Dmax and DC50) cells were seeded at 8000/well in 96-well black/clear-bottom plates in 180 μL DMEM growth media (containing 1% pen-strep, 1% HEPES and 10% FBS) per well. Plates were incubated overnight to allow adhesion. The next morning cells were treated by adding 20 μL of 10× target compound concentration (1% DMSO) to appropriate wells and returned to incubator for overnight (18-20 hours). The final DMSO concentration was 0.1%.
For lysing, adherent cells were washed once with 100 μL of DPBS. Cells were lysed in 40 μL of 1× RIPA+HALT protease inhibitor on ice for 10 minutes and frozen until use at −80° C. Thawed lysates were cleaned by filtration in 1.2 µm filter plates, or alternatively, were spun clean at 2300 g at 4° C. for 30 minutes.
For blotting, for each Western sample 30 μL of lysate was added to 10 μL of 4×LDS sample buffer, then denatured at 95° C. for 5 minutes in the thermal cycler and placed on ice. Samples were loaded on 4-15% Tris/Glycine gels and run for 25 minutes at 250 constant volts in 1×Tris/Glycine buffer with 4 μL of ladder and 12 μL of each sample loaded for each blot. Protein was transferred from gels to NC with BioRad Turbo dry-transfer unit with the Turbo/midi default program. All blots were rinsed with ddH2O and blocked for 1 hour at room temperature in 5% BSA in TBST (0.1%) on rocker. Blots were exposed to primary antibody in 5% BSA in TBST (0.1%) overnight at 4° C. on rocker (1:1000 for BRM (Cell Signaling Tech. cat #11966) and 1:2000 for alpha-tubulin (Cell Signaling Tech. cat #3873), a control protein. Blot was washed with TBST (0.1%) three times for 5 minutes on rocker at room temperature. Secondary antibody was added, and blots were incubated on a room temperature rocker for 1 hour with 1:18,000 anti-rabbit-HRP and/or anti-mouse-HRP in 5% BSA in TBST (0.1%). Blots were washed three times in TBST (0.1%) for 5 minutes at room temperature on the rocker. Signal was developed with Femto Maximum Sensitivity substrate for 4 minutes and blots read on ChemiDoc™.
In-Cell Western Screen of BRM Degradation in SW1573 Cells
as §1, with “DC50),” for “DC50)”, “10×” for “10× target”, “compound” for “compound concentration”
For processing, the plates were removed from incubator, the media was removed, and immediately 200 μL of cold (4° C.) DPBS was added to all wells. DPBS was then removed, and 50 μL of 4% paraformaldehyde (PFA) in DPBS (4° C.) was added to all wells, and the plates were incubated at room temperature for 20 minutes. PFA was then removed, and 200 μL of TBS-T containing 0.5% Triton X-100 was added to all wells, and the plates were incubated at room temperature for 30 minutes. TBS-T containing 0.5% Triton X-100 was then removed, and 50 μL of Li-Cor blocking solution was added, and the plates were incubated at room temperature for a minimum of one hour. The blocking solution was removed, and 50 μL of Li-Cor blocking solution containing primary antibody cocktail was added (1:1000 for BRM (Cell Signaling Tech. cat #11966) and 1:2000 for alpha-tubulin (Sigma cat #T6074), a control protein. Plates were then placed in cold room until the next day.
The next day plates were washed three times with TBS-T, 200 μL per well. Fifty […] of secondary antibody cocktail in LI-COR blocking solution (anti-rabbit_800 nm and anti-mouse_680 nm) was added to all wells (diluted 1:5000). The plates were incubated at room temperature for at least one hour while protected from light. The plates were washed twice with TBS-T, 200 μL per well. […]

T1 sequence (P51531 whole entry): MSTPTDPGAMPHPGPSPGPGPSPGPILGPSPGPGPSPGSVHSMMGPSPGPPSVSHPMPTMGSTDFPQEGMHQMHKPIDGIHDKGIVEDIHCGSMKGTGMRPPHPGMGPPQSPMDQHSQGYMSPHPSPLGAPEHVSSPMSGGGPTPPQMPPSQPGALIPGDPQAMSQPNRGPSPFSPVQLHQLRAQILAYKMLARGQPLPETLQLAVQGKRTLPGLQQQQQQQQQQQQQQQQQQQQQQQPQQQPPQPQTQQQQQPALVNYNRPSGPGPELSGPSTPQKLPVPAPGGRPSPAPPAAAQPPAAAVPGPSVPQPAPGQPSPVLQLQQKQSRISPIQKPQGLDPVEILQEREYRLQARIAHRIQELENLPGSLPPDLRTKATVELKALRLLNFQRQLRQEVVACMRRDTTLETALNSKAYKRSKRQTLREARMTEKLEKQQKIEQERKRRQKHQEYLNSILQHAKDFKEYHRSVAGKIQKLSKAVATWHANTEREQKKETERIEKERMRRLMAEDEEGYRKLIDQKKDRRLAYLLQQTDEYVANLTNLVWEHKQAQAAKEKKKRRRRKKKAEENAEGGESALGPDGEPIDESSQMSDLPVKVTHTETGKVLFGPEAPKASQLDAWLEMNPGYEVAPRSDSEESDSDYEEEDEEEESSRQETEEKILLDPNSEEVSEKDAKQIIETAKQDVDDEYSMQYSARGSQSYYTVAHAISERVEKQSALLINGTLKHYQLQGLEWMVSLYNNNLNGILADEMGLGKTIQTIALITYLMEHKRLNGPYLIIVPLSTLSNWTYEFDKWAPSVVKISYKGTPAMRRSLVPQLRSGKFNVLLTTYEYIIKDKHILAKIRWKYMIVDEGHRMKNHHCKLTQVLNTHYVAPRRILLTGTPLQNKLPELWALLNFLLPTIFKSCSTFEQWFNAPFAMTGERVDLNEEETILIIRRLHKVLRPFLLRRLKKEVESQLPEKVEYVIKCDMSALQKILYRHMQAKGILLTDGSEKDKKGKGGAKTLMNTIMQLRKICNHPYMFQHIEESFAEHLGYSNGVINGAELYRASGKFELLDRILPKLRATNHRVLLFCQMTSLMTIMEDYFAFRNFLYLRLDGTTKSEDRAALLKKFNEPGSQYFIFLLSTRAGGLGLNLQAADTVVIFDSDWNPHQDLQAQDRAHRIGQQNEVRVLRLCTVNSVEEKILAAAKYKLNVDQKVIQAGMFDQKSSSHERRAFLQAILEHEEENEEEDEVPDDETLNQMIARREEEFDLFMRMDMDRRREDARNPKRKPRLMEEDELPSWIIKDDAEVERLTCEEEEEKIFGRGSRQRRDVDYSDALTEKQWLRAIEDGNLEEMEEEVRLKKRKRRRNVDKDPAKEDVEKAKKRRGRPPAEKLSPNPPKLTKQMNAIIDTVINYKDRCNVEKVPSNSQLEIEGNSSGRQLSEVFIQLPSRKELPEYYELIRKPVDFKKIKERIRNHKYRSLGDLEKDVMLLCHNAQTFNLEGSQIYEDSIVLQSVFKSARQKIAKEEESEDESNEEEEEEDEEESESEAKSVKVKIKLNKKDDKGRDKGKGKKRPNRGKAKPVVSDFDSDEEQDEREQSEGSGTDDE

Row | Compound | DC50 | Dmax
1 | Cc1ncsc1-c1ccc([C@H](C)NC(=O)[C@@H]2C[C@@H](O)CN2C(=O)[C@@H](c2cc(N3CCC(CN4CCC(O[C@H]5C[C@H](Oc6cc(N7CCN(c8cc(-c9ccccc9O)nnc8N)CC78CC8)ccn6)C5)CC4)CC3)no2)C(C)C)cc1 [Compound 6, (2S,4R)-4-hydroxy-N-[(1S)-1-[4-(4-methyl-1,3-thiazol-5-yl)phenyl]ethyl]-1-[(2R)-3-methyl-2-{3-[4-({4-[(1r,3r)-3-[(4-{7-[3-amino-6-(2-hydroxyphenyl)pyridazin-4-yl]-4,7-diazaspiro[2.5]octan-4-yl}pyridin-2-yl)oxy]cyclobutoxy]piperidin-1-yl}methyl)piperidin-1-yl]-1,2-oxazol-5-yl}butanoyl]pyrrolidine-2-carboxamide] | < 2.5 nM | > 75%
2 | Cc1ncsc1-c1ccc([C@H](C)NC(=O)[C@@H]2C[C@@H](O)CN2C(=O)[C@@H](c2cc(N3CCC(CN4CCC(O[C@H]5C[C@H](Oc6cc(N7CCN(c8cc(-c9ccccc9O)nnc8N)CC78COC8)ccn6)C5)CC4)CC3)no2)C(C)C)cc1 [Compound 4, (2S,4R)-4-hydroxy-N-[(1S)-1-[4-(4-methyl-1,3-thiazol-5-yl)phenyl]ethyl]-1-[(2R)-3-methyl-2-{3-[4-({4-[(1r,3r)-3-[(4-{8-[3-amino-6-(2-hydroxyphenyl)pyridazin-4-yl]-2-oxa-5,8-diazaspiro[3.5]nonan-5-yl}pyridin-2-yl)oxy]cyclobutoxy]piperidin-1-yl}methyl)piperidin-1-yl]-1,2-oxazol-5-yl}butanoyl]pyrrolidine-2-carboxamide] | < 2.5 nM | > 75%
3 | Cc1ncsc1-c1ccc([C@H](C)NC(=O)[C@@H]2C[C@@H](O)CN2C(=O)[C@@H](c2cc(OCCCC#Cc3cn4cc(-c5ccccc5O)nc4nc3N)no2)C(C)C)cc1 [Compound 31, (2S,4R)-1-[(2R)-2-[3-[5-[7-amino-2-(2-hydroxyphenyl)imidazo[1,2-a]pyrimidin-6-yl]pent-4-ynoxy]isoxazole-5-yl]-3-methyl-butanoyl]-4-hydroxy-N-[(1S)-1-[4-(4-methylthiazol-5-yl)phenyl]ethyl]pyrrolidine-2-carboxamide] | ≥ 30 nM | 
4 | Cc1ncsc1-c1ccc([C@H](C)NC(=O)[C@@H]2C[C@@H](O)CN2C(=O)[C@@H](c2cc(N3CCC(CN4CCC(O[C@H]5C[C@H](N6CCC(CN7CC8(C7)CN(c7cc(-c9ccccc9O)nnc7N)CCO8)CC6)C5)CC4)CC3)no2)C(C)C)cc1 [Compound 11, (2S,4R)-4-hydroxy-N-[(1S)-1-[4-(4-methyl-1,3-thiazol-5-yl)phenyl]ethyl]-1-[(2R)-3-methyl-2-{3-[4-({4-[(1r,3r)-3-[4-({8-[3-amino-6-(2-hydroxyphenyl)pyridazin-4-yl]-5-oxa-2,8-diazaspiro[3.5]nonan-2-yl}methyl)piperidin-1-yl]cyclobutoxy]piperidin-1-yl}methyl)piperidin-1-yl]-1,2-oxazol-5-yl}butanoyl]pyrrolidine-2-carboxamide] | 2.5 to 10 nM | > 75%
5 | CC(C)[C@@H](C(=O)N1C[C@H](O)C[C@H]1C(=O)N[C@@H](C)c1ccc(-c2ccnn2C)cc1)c1cc(N2CCC(CN3CCC(O[C@H]4C[C@H](C#Cc5cn6cc(-c7ccccc7O)nc6nc5N)C4)CC3)CC2)no1 [Compound 33] | < 2.5 nM | > 75%
6 | Cc1ncsc1-c1ccc([C@H](C)NC(=O)[C@@H]2C[C@@H](O)CN2C(=O)[C@@H](c2cc(N3CCC(CN4CCC(O[C@H]5C[C@H](N6CCC(CN7CC8(C7)CN(c7cc(-c9ccccc9O)nnc7N)CCN8C)CC6)C5)CC4)CC3)no2)C(C)C)cc1 [Compound 27, (2S,4R)-4-hydroxy-N-[(1S)-1-[4-(4-methyl-1,3-thiazol-5-yl)phenyl]ethyl]-1-[(2R)-3-methyl-2-{3-[4-({4-[(1r,3r)-3-[4-({8-[3-amino-6-(2-hydroxyphenyl)pyridazin-4-yl]-5-methyl-2,5,8-triazaspiro[3.5]nonan-2-yl}methyl)piperidin-1-yl]cyclobutoxy]piperidin-1-yl}methyl)piperidin-1-yl]-1,2-oxazol-5-yl}butanoyl]pyrrolidine-2-carboxamide] | 2.5 to 10 nM | > 75%
7 | Cc1ncsc1-c1ccc([C@H](C)NC(=O)[C@@H]2C[C@@H](O)CN2C(=O)[C@@H](c2cc(N3CCC(CN4CCC(O[C@H]5C[C@H](Oc6cc(CCc7cc(-c8ccccc8O)nnc7N)ccn6)C5)CC4)CC3)no2)C(C)C)cc1 [Compound 1, (2S,4R)-4-hydroxy-N-[(1S)-1-[4-(4-methyl-1,3-thiazol-5-yl)phenyl]ethyl]-1-[(2R)-3-methyl-2-{3-[4-({4-[(1r,3r)-3-[(4-{2-[3-amino-6-(2-hydroxyphenyl)pyridazin-4-yl]ethyl}pyridin-2-yl)oxy]cyclobutoxy]piperidin-1-yl}methyl)piperidin-1-yl]-1,2-oxazol-5-yl}butanoyl]pyrrolidine-2-carboxamide] | 2.5 to 10 nM | > 75%
8 | Cc1ncsc1-c1ccc([C@H](C)NC(=O)[C@@H]2C[C@@H](O)CN2C(=O)[C@@H](c2cc(N3CCC(CN4CCC(O[C@H]5C[C@H](N6CCC(O[C@H]7C[C@H](C#Cc8cc(-c9ccccc9O)nnc8N)C7)CC6)C5)CC4)CC3)no2)C(C)C)cc1 [Compound 5, (2S,4R)-4-hydroxy-N-[(1S)-1-[4-(4-methyl-1,3-thiazol-5-yl)phenyl]ethyl]-1-[(2R)-3-methyl-2-{3-[4-({4-[(1r,3r)-3-(4-[(1r,3r)-3-{2-[3-amino-6-(2-hydroxyphenyl)pyridazin-4-yl]ethynyl}cyclobutoxy]piperidin-1-yl}cyclobutoxy]piperidin-1-yl}methyl)piperidin-1-yl]-1,2-oxazol-5-yl}butanoyl]pyrrolidine-2-carboxamide] | < 2.5 nM | > 75%
9 | Cc1ncsc1-c1ccc([C@H](C)NC(=O)[C@@H]2C[C@@H](O)CN2C(=O)[C@@H](c2cc(N3CCC(CN4CCC5(CC4)CC(N4CCO[C@@H](CN6CC7(CCN(c8cc(-c9ccccc9O)nnc8N)CC7)C6)C4)C5)CC3)no2)C(C)C)cc1 [Compound 18, (2S,4R)-1-[(2R)-2-{3-[4-({2-[(2S)-2-({7-[3-amino-6-(2-hydroxyphenyl)pyridazin-4-yl]-2,7-diazaspiro[3.5]nonan-2-yl}methyl)morpholin-4-yl]-7-azaspiro[3.5]nonan-7-yl}methyl)piperidin-1-yl]-1,2-oxazol-5-yl}-3-methylbutanoyl]-4-hydroxy-N-[(1S)-1-[4-(4-methyl-1,3-thiazol-5-yl)phenyl]ethyl]pyrrolidine-2-carboxamide] | 10 to 30 nM | > 75%
10 | Cc1ncsc1-c1ccc([C@H](C)NC(=O)[C@@H]2C[C@@H](O)CN2C(=O)[C@@H](c2cc(N3CCC(CN4CCC(O[C@H]5C[C@@H](N6CCC(CC#Cc7cn8cc(-c9ccccc9O)nc8nc7N)CC6)C5)CC4)CC3)no2)C(C)C)cc1 [Compound 36, formate] | < 2.5 nM | > 75%
11 | CC(C)[C@@H](C(=O)N1C[C@H](O)C[C@H]1C(=O)N[C@@H](C)c1ccc(-c2ccnn2C)cc1)c1cc(N2CCC(CN3CCC(O[C@H]4C[C@H](OCC#Cc5cn6cc(-c7ccccc7O)nc6nc5N)C4)CC3)CC2)no1 [Compound 32] | < 2.5 nM | > 75%

From patent US20250064945A1 (Arvinas Operations, Inc., priority 2021, published 2025)
